Assays:
[1] = target: PPARα (UniProt Q4PNY3); assay: PPAR receptor transactivation assay; type: cell-based; conditions: Monkey PPARα
[2] = tested on: human retinoid X receptor (hRXR); assay: Nuclear receptor activity
[3] = target: FXR (Homo sapiens, UniProt Q96RI1); assay: Nuclear receptor activity
[4] = target: LXRα (Homo sapiens, UniProt Q13133); assay: Nuclear receptor activity
[5] = tested on: human muscle cell lines; assay: Fatty acid oxidation in muscle cell lines; type: cell-based
[6] = tested on: rat muscle cell lines; assay: Fatty acid oxidation in muscle cell lines; type: cell-based
[7] = tested on: PPARδ regulated genes (CPT1b, PGC-1α); assay: In vivo expression of PPARδ regulated genes in muscle; conditions: mice muscle
[8] = tested on: Angiopoietin-like 4 (ANGPTL4); assay: In vivo expression of PPAR regulated target gene in muscle; conditions: rat muscle
[9] = tested on: VLCAD; assay: VLCAD enzymatic activity in cultured fibroblasts from FAOD patients with VLCAD deficiency; type: cell-based, human; conditions: fibroblasts from symptomatic VLCAD deficient patients
[10] = tested on: patients with primary mitochondrial myopathy; assay: Clinical trial for primary mitochondrial myopathy (PMM); type: in vivo, human
[11] = tested on: healthy male volunteers, leg immobilization; assay: Phase 1 placebo-controlled study in healthy volunteers with single limb immobilization; type: in vivo, human; conditions: 100 mg twice daily for 28 days
Procedure: In a prior clinical trial in healthy volunteers, Compound I was administered at dose of 100 mg twice daily for 28 days in healthy volunteers during and after a single limb immobilization (see NCT01524406). The study was conducted to evaluate the impact of Compound I on the recovery of muscle atrophy from leg immobilization, and improvements in cross section area (CSA) and muscle strength parameters expected in patients treated with study drug compared to those given placebo.
This phase 1, randomized, parallel group, placebo-controlled study was conducted at 2 centers in the United States. Fifty participants were planned for enrollment, 25 per group; participants could be replaced upon sponsor approval.
Screening was conducted 28 days before study start; eligibility was reviewed again at prespecified times during the study. Ambulatory, non-smoking, healthy male volunteers 30 to 55 years of age with a Body Mass Index (BMI) from 18 to 30 kg/m2 were recruited for the study. Key exclusion criteria included abnormal laboratory values at screening, a recent history of body weight fluctuations, positive urine drug screens, drug dependency or illicit drug use, professional sport participation within 30 days of screening, donation of whole blood within 90 days of dosing, and donation of plasma within 30 days of dosing. Concomitant medications within 14 days of dosing were not allowed unless approved by the sponsor. Those who had enrolled in another clinical trial within 90 days or had previously received Compound II were not allowed to participate.
Participants were randomly assigned 1:1 to receive either Compound II (100 mg BID) or matching placebo for 28 days using a computer generated randomization schedule provided by the sponsor. The principal investigator, study center staff, and participants were blinded to treatment; the protocol was amended so that sponsor personnel were not blinded. This change was made to allow investigation of observations concerning adherence to the protocol, discussed further in the pharmacodynamic results. Compound II and placebo were provided as capsules identical in appearance, taken orally with 240 ml of water prior to meals. Study drug was administered at the study site on Days 1 (PM dose), 6 (AM dose), 13 (PM dose), and 14, 15, 16, 29 (AM doses). At all other times study drug was self-administered just before breakfast and dinner. Dates and times were recorded in a diary, with compliance determined from the diaries and capsule counts. Study drug supplies were packaged according to the randomization codes by a contract research organization. Each dispensed bottle was labeled with the randomization number. Individual capsules were re-dispensed from these bottles by the study site staff, maintaining the blind. The total study duration for each subject was 42 days. Participants stayed overnight from Day 1 and Days 13 to 16.
Standardized meals, beverages and snacks were provided during the domicile periods. On Day 1, participants were leg-immobilized using a knee brace with […] on the left leg to allow driving. Walking crutches were provided to prevent weight bearing on the immobilized leg. An accelerometer was issued at screening and was used to count the number of steps per day. Participants were to walk 4000 to 6000 steps each day for the duration of the leg immobilization period, and recorded accelerometer readings each evening before bedtime. The brace was removed on Day 14, and participants resumed normal physical activity gradually from Days 16 to 29. After stopping study drug on Day 29, participants were to resume regular daily activity gradually for another 2 weeks. Consumption of prescribed medications or over the counter products was prohibited from 14 days prior to dosing and throughout the study, with the exception of the treatment of an adverse event. Participants were not to consume alcohol or caffeine containing food and beverages 3 days before each study visit and domicile periods. […]

[12] = 100 mg once daily, 12 weeks, listed as Compound 1

Chain of LXRα (Q13133 whole entry): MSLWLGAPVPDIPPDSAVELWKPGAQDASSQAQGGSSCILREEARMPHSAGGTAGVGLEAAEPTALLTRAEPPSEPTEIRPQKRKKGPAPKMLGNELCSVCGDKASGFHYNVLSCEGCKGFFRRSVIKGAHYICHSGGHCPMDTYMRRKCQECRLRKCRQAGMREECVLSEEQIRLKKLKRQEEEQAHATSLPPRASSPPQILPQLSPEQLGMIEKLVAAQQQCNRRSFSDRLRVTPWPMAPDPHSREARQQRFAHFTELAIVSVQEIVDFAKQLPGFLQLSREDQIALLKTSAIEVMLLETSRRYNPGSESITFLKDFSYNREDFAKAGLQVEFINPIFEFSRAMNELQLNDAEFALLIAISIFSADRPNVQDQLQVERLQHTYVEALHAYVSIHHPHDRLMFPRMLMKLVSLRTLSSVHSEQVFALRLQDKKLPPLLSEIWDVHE
Chain of FXR (Q96RI1 whole entry, species assumed): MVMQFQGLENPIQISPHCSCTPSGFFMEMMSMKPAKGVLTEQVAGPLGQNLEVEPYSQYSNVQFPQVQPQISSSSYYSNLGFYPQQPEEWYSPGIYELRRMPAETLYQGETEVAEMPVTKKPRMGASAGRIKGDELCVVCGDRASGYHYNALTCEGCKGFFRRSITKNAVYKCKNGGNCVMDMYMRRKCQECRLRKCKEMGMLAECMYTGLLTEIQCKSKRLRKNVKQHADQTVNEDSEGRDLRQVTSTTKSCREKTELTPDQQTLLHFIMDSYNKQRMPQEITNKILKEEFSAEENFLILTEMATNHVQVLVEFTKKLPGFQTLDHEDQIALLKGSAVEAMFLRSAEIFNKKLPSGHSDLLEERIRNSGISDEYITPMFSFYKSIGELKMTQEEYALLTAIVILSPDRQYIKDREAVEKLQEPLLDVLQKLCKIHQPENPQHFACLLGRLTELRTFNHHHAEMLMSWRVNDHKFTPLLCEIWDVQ

EC50 [1]: > 1000 nM
hRXR activity [2]: did not show any
activity on nuclear receptor FXR [3]: did not show any
activity on nuclear receptor LXRα [4]: did not show any
Structure (SMILES): Cc1cc(OC/C=C(/c2ccc(F)cc2)c2ccc(C#CCN3CCOCC3)cc2)ccc1OCC(=O)O [Compound I, (E)-2-(4-((3-(4-fluorophenyl)-3-(4-(3-morpholinoprop-1-yn-1-yl)phenyl)allyl)oxy)-2-methylphenoxy)acetic acid]
fatty acid oxidation [5]: dose-dependent increase
fatty acid oxidation [6]: dose-dependent increase
expression patterns of PPARδ regulated genes (CPT1b, PGC-1α) [7]: altered the expression patterns
expression of ANGPTL4 [8]: increased the expression
VLCAD enzymatic activity [9]: increased
Modified Fatigue Impact Scale scores ([10]; 100 mg once daily, 12 weeks): trends towards increases
brief pain inventory (BPI) score ([10]; 100 mg once daily, 12 weeks): Decreases
distance walked during a 12-minute walk test ([10]; 100 mg once daily, 12 weeks): able to increase the distance walked
peak VO2 ([10]; 100 mg once daily, 12 weeks): trends towards increases
brief pain inventory (BPI) score [10, 12]: decreased
distance walked during a 12-minute walk test [10, 12]: Improvements
tolerability ([10]; PMM patients): well tolerated
expression of PPAR regulated target genes (ANGPTL4) and fatty acid metabolism genes (PDK4) in muscle biopsies [11]: significant increases
mean knee extension strength from baseline vs placebo ([11]; Day 21): significant increase

— patent US11931365B2, “Use of PPAR-delta agonists in the treatment of disease” (Reneo Pharmaceuticals, Inc., priority 2022, dated 2024)
